Data from patent US20260232682A1, “GSPT1 DEGRADER COMPOUNDS” (Captor Therapeutics S.A., priority 2023, published 2026).

Assays:
[1] = target: T1, [SALL4 ZF2]-[compound]-[CRBN/DDB1] ternary complex (Homo sapiens, UniProt Q96SW2+Q9UJQ4); assay: AlphaLISA assay for off-target recruitment detection, SALL4 ZF2; format: binding; conditions: 1 μM compound, normalized to Lenalidomide; for activation at 1 µM: read-out: Normalized ternary complex response, SALL4 ZF2
T1 construct: SALL4 ZF2
Procedure: (§1) The ability of the molecular glue compounds of the invention to mediate the proximity of CRBN with its known neo-substrates (shown in Table 3) was assessed using AlphaLISA to detect the formation of a [neo-substrate]-[compound of formula (I)]-[CRBN/DDB1] ternary complex.
(§2) Two types of protein solution were prepared: • neo-substrate, 40 μg/ml AlphaScreen Donor Beads (Table 3) in PBS (10 mM phosphate buffer, 137 mM NaCL, 2.7 mM KCl, pH 7.4) buffer supplemented with Tween-20 (Table 3) and 1 mM DTT, • 200 nM 6×His-CRBN/DDB1, 40 μg/ml AlphaLISA Anti-6×His Acceptor beads in PBS buffer with Tween-20 (Table 3) and 1 mM DTT.
(§3) The prepared solutions were incubated at room temperature for 30 min and then the solution containing the donor beads was mixed with the solution containing the acceptor beads.
(§4) The tested compounds were dispensed onto a white 384-well AlphaPlate 384 SW. DMSO was backfilled to all wells, resulting in a final DMSO content of 2%. Wells containing only DMSO served as background. Next, 10 μl of solution with donor and acceptor beads was added to the wells.
(§5) The plate was sealed with transparent film and shaken using a VibroTurbulator for 60 sec at room temperature, level 3. The plate was then spun down shortly (10 sec, 1000 rcf, room temperature) and incubated at 25° C. for 30 min.
(§6) The read-out was performed with PerkinElmer Enspire Multimode Plate Reader (method for AlphaLISA 384-well low volume, Filterset: λexc=680 nm, λem=615 nm).
(§7) The results were analyzed as follows: • 1) an average of luminescence for background signal was calculated and used as a negative control; • 2) an average of the maximum measured luminescence for reference compound (Table 3) was calculated and used as an internal positive control; • 3) raw luminescence values were normalized against positive and negative controls; • 4) Normalized responses to reference molecular glue were determined.

[2] = target: T2, [IKZF2 ZF2]-[compound]-[CRBN/DDB1] ternary complex (Homo sapiens, UniProt Q96SW2+Q9UKS7); assay: AlphaLISA assay for off-target recruitment detection, IKZF2 ZF2; format: binding; conditions: 1 μM compound, normalized to Helios modulator; for activation at 1 µM: read-out: Normalized ternary complex response, IKZF2 ZF2
T2 construct: IKZF2 ZF2
T2 sequence (Q9UKS7 140-162 limits assumed): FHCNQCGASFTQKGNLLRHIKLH
T2 sequence (Q96SW2 whole entry): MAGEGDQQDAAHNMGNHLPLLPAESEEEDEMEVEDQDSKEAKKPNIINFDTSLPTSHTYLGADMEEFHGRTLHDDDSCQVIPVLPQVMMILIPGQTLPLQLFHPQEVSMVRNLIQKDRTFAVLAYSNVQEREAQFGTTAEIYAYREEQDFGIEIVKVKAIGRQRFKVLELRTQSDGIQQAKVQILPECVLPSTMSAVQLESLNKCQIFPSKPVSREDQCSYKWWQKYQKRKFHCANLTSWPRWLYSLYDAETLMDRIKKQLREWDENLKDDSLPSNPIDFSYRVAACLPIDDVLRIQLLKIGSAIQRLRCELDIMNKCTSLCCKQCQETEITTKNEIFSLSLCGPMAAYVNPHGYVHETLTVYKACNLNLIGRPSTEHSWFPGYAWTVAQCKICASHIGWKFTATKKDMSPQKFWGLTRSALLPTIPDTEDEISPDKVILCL
T2 sequence (Q16531 whole entry partner): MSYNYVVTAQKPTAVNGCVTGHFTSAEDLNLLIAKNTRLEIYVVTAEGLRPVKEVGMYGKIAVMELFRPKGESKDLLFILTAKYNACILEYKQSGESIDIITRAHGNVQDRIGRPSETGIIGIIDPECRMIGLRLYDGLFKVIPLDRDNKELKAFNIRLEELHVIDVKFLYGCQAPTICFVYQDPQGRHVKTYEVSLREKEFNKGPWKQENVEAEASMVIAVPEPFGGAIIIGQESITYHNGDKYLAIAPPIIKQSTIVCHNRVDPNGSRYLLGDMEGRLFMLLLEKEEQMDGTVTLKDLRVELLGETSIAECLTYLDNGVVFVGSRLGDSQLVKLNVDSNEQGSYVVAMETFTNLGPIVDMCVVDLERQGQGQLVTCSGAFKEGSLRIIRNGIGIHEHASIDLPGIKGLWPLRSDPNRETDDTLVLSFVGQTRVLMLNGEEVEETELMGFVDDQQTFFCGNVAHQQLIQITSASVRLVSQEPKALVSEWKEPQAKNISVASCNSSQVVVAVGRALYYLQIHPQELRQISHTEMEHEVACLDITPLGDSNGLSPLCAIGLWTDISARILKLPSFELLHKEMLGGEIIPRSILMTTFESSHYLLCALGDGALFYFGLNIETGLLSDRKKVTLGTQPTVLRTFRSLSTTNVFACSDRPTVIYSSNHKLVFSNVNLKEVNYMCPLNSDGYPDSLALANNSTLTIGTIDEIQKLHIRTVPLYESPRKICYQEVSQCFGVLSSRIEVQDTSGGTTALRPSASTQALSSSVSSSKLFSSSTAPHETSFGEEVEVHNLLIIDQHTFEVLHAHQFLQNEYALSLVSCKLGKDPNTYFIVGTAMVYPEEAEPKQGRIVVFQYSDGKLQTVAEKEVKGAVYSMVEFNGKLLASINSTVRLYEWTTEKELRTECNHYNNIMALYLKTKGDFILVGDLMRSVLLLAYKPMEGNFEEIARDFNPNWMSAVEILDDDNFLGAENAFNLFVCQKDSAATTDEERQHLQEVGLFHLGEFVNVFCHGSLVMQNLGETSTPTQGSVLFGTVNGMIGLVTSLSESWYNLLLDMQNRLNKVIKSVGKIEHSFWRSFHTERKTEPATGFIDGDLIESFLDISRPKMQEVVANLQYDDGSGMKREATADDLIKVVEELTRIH
Procedure: as §1, §2, §3, §4, §5, §6, §7

[3] = target: T3, [IKZF1 ZF2]-[compound]-[CRBN/DDB1] ternary complex (Homo sapiens, UniProt Q13422+Q96SW2); assay: AlphaLISA assay for off-target recruitment detection, IKZF1 ZF2; format: binding; conditions: 1 μM compound, normalized to Lenalidomide; for activation at 1 µM: read-out: Normalized ternary complex response, IKZF1 ZF2
T3 construct: IKZF1 ZF2
T3 sequence (Q13422 145-167 limits assumed): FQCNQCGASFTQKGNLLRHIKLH
T3 sequence (Q96SW2 whole entry): as the sequence (Q96SW2 whole entry) above
T3 sequence (Q16531 whole entry partner): as the sequence (Q16531 whole entry partner) above
Procedure: as §1, §2, §3, §4, §5, §6, §7

[4] = target: [CK1α]-[compound]-[CRBN/DDB1] ternary complex (Homo sapiens, UniProt P48729+Q96SW2); assay: AlphaLISA assay for off-target recruitment detection, CK1α; format: binding; conditions: 1 μM compound, normalized to FPFT-2216; for activation at 1 µM: read-out: Normalized ternary complex response, CK1α
[CK1α]-[compound]-[CRBN/DDB1] ternary complex, sequence (P48729 whole entry): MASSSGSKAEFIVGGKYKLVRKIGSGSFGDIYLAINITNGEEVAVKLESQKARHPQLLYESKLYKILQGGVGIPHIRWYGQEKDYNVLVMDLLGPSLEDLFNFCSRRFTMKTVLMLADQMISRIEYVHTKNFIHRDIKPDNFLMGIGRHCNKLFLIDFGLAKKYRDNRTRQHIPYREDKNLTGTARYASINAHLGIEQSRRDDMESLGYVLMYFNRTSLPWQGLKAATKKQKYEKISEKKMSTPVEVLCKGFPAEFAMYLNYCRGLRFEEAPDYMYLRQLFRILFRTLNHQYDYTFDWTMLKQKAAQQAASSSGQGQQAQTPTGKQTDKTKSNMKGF
[CK1α]-[compound]-[CRBN/DDB1] ternary complex, sequence (Q96SW2 whole entry): as the sequence (Q96SW2 whole entry) above
[CK1α]-[compound]-[CRBN/DDB1] ternary complex, sequence (Q16531 whole entry partner): as the sequence (Q16531 whole entry partner) above
Procedure: as §1, §2, §3, §4, §5, §6, §7

[5] = target: T4, [GSPT1]-[compound of formula (I)]-[CRBN/DDB1] complex (Homo sapiens, UniProt P15170+Q96SW2); assay: HTRF ternary complex assay (GSPT1); format: binding; conditions: read-out: HTRF ternary complex Average pEC50 by molecule (converted)
T4 sequence (P15170 whole entry): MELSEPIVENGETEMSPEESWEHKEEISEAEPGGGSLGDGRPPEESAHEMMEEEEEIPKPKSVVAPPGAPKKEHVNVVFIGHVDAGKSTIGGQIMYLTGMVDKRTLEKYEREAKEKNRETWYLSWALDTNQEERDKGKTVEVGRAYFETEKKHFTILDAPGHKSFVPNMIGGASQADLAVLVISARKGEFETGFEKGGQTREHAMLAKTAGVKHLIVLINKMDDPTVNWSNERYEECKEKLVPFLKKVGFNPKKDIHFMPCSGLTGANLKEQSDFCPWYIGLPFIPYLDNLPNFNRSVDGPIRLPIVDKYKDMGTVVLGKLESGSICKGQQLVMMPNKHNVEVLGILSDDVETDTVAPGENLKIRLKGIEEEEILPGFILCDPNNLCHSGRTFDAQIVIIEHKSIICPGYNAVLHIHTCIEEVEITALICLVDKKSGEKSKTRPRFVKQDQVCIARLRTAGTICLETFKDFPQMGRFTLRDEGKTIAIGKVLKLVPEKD
T4 sequence (Q96SW2 whole entry): as the sequence (Q96SW2 whole entry) above
T4 sequence (Q16531 whole entry partner): as the sequence (Q16531 whole entry partner) above
Procedure: The effect of the molecular glue compounds of the invention on the formation of a ternary complex composed of [GSPT1]-[compound of formula (I)]-[CRBN/DDB1] was investigated.
Mix solution of proteins and reagents was prepared: • 48 nM GSPT1, 52.8 nM 6×His-CRBN/DDB1, 3 nM of Streptavidin-Eu cryptate ([…]) and 6.67 nM of Anti-6×his-d2 ([…]) was prepared in PPI Europium detection buffer (purchased from Cisbio) with 1 mM DTT.
The tested compounds in dose-response were dispensed onto a white 384-well low volume plate (Greiner, 784075). DMSO was backfilled to all wells, resulting in a final DMSO content of 0.5%. Wells containing only DMSO served as background.
The plate was sealed with transparent film and shaken using a VibroTurbulator for 60 sec at level 3.
The plate was then spun down shortly (10 sec, 1000 rcf) and incubated at 25° C. for 180 min.
The read-out was performed with plate reader (Pherastar, BMG Labtech) in time resolved fluorescence mode. Filter settings: TR 337 665 620.
The results were analyzed as follows: • 1) an average of fluorescence for background signal was calculated and used as a negative control; • 2) raw fluorescence values for tested compounds were normalized against negative controls; • 3) saturation curve was fitted to specific binding with Hill slope model; • 4) EC50 and pEC50 values were determined.

[6] = target: CRBN/DDB1 protein complex (Homo sapiens, UniProt Q96SW2); assay: CRBN displacement TR-FRET assay; conditions: Thalidomide-Red tracer, 6×His-CRBN/DDB1; read-out: CRBN binding Ki
CRBN/DDB1 protein complex, sequence (Q96SW2 whole entry, species assumed): as the sequence (Q96SW2 whole entry) above
CRBN/DDB1 protein complex, sequence (Q16531 whole entry partner, species assumed): as the sequence (Q16531 whole entry partner) above
Procedure: CRBN/DDB1 protein complex was mixed with Thalidomide-Red and a compound to be tested (the “test compound”). The test solution contained PPI Europium detection buffer, 1 mM DTT, 6.8 nM Thalidomide-Red (the tracer), 5 nM 6×His-CRBN/DDB1 protein, 0.5 nM Anti-6× His-Eu cryptate, 1% DMSO. The test solution was added to a 384-well assay plate.
The plate was spun-down (1 min, 1000 rpm, 22° C.) and then shaken using a VibroTurbulator for 30 sec at room temperature (20-25° C.), with the frequency set to level 10. The assay plate with protein and the tracer was incubated for 180 min at room temperature (20-25° C.) prior to read-out with a plate reader. The read-out was performed with plate reader (Pherastar, BMG Labtech) in time resolved fluorescence mode. Filter settings: TR 337 665 620.
The CRBN displacement TR-FRET experiment was carried out with various concentrations of the test compounds in order to measure Ki values.
The Ki values of competitive inhibitors were calculated using the equation based on the IC50 values of relationship between compound concentration and measured […], the Kd value of the Thalidomide-Red and CRBN/DDB1 complex, and the concentrations of the protein and the tracer in the displacement assay (as described by Cheng and Prusoff, Biochem Pharmacol 1973; 22:3099-3108).

[7] = target: T4, [GSPT1]-[compound of formula (I)]-[CRBN/DDB1] complex; assay: AlphaLISA ternary complex formation assay (GSPT1); format: binding; conditions: 0.5 h; 1 μM compound; normalized to reference compound CC-885; read-out: Normalized AlphaLISA ternary complex average signal at 1 μM molecule
Procedure: The effect of the molecular glue compounds of the invention on the formation of a ternary complex composed of [GSPT1]-[compound of formula (I)]-[CRBN/DDB1] was investigated with two methods: AlphaLISA dose response assay or HTRF ternary complex assay.
Two types of protein solution were prepared: • 200 nM biotinylated GSPT1 (Table 3), 40 μg/ml AlphaScreen Streptavidin-coated Donor Beads in HBS (10 mM HEPES, 150 mM NaCL, pH 7.4) buffer with 0.1% Tween-20 and 1 mM DTT, • 200 nM 6×His-CRBN/DDB1, 40 μg/ml AlphaLISA Anti-6×His Acceptor beads in HBS buffer with 0.1% Tween-20 and 1 mM DTT.
as §3, §4, §5, §6
as §7, with “2)” for “2) an”, “(structure shown in Table 3 below)” for “(Table 3)”, “positive control” for “reference molecular glue”

T1 sequence (Q9UJQ4 410-432 limits assumed): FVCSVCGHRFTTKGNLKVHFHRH
T1 sequence (Q96SW2 whole entry): as the sequence (Q96SW2 whole entry) above
T1 sequence (Q16531 whole entry partner): as the sequence (Q16531 whole entry partner) above

| SMILES | Normalized ternary complex response, SALL4 ZF2 [1] | Normalized ternary complex response, IKZF2 ZF2 [2] | Normalized ternary complex response, IKZF1 ZF2 [3] | Normalized ternary complex response, CK1α [4] | EC50 [5] [µM] | activation at 1 µM [1] [%] | Ki [6] [µM] | activation at 1 µM [2] [%] | activation at 1 µM [3] [%] | activation at 1 µM [4] [%] | activation at 1 µM [7] [%] |
| --- | --- | --- | --- | --- | --- | --- | --- | --- | --- | --- | --- |
| Cc1ccc(NC(=O)NCc2ccc3c(c2)CN(C2CCC(=O)NC2=O)C3=O)cc1Cl (centres unmarked) [CC-885, reference compound] | A (A≥50%) | A (A≥50%) | A (A≥50%) | C (10%≤C<25%) | – | – | – | – | – | – | – |
| Cc1nc2ccc(CNC(=O)C(=O)c3ccc(C(C)(C)C)cc3)cc2cc1C1CCC(=O)NC1=O (centres unmarked) [Compound 1, 2-(4-(tert-butyl)phenyl)-N-((3-(2,6-dioxopiperidin-3-yl)-2-methylquinolin-6-yl)methyl)-2-oxoacetamide] | – | – | – | – | < 0.316 | ≥ 50 | < 0.5 | 10 to 25 | 25 to 50 | < 10 | > 50 |
| Cc1ccc(Nc2c(NCc3ccc4cc(C5CCC(=O)NC5=O)c(C)nc4c3)c(=O)c2=O)cc1Cl (centres unmarked) [Compound 3, 3-(7-(((2-((3-chloro-4-methylphenyl)amino)-3,4-dioxocyclobut-1-en-1-yl)amino)methyl)-2-methylquinolin-3-yl)piperidine-2,6-dione] | – | – | – | – | > 3.16 | < 10 | > 1 | < 10 | < 10 | < 10 | 10 to 50 |
| Cc1nc2ccc(COC(=O)Nc3cc(OC(F)(F)F)ccc3F)cc2cc1C1CCC(=O)NC1=O (centres unmarked) [Compound 7, (3-(2,6-dioxopiperidin-3-yl)-2-methylquinolin-6-yl)methyl (2-fluoro-5-(trifluoromethoxy)phenyl)carbamate] | – | – | – | – | > 3.16 | ≥ 50 | < 0.5 | < 10 | 25 to 50 | < 10 | 10 to 50 |
| Cc1ccc(-c2nnc(NCc3ccc4cc(C5CCC(=O)NC5=O)c(C)nc4c3)o2)cc1Cl (centres unmarked) [Compound 13, 3-(7-(((5-(3-chloro-4-methylphenyl)-1,3,4-oxadiazol-2-yl)amino)methyl)-2-methylquinolin-3-yl)piperidine-2,6-dione] | – | – | – | – | > 3.16 | < 10 | < 0.5 | < 10 | < 10 | < 10 | 10 to 50 |
| Cc1nc2ccc(CNC(=O)C(=O)N3CCC(C(C)(C)C)CC3)cc2cc1C1CCC(=O)NC1=O (centres unmarked) [Compound 23, 2-(4-(tert-butyl)piperidin-1-yl)-N-((3-(2,6-dioxopiperidin-3-yl)-2-methylquinolin-6-yl)methyl)-2-oxoacetamide] | – | – | – | – | > 3.16 | 25 to 50 | < 0.5 | < 10 | < 10 | < 10 | 10 to 50 |
| Cc1ccc(NCC(=O)NCc2ccc3nc(C)c(C4CCC(=O)NC4=O)cc3c2)cc1Cl (centres unmarked) [Compound 26, 2-((3-chloro-4-methylphenyl)amino)-N-((3-(2,6-dioxopiperidin-3-yl)-2-methylquinolin-6-yl)methyl)acetamide] | – | – | – | – | 0.316 to 3.16 | 25 to 50 | 0.5 to 1 | < 10 | < 10 | < 10 | 10 to 50 |
| Cc1ccc(NC(=O)C(C)Oc2ccc3cc(C4CCC(=O)NC4=O)c(C)nc3c2)cc1Cl (centres unmarked) [Compound 34, N-(3-chloro-4-methylphenyl)-2-((3-(2,6-dioxopiperidin-3-yl)-2-methylquinolin-7-yl)oxy)propenamide] | – | – | – | – | > 3.16 | < 10 | 0.5 to 1 | < 10 | < 10 | < 10 | < 10 |
| Cc1nc2cc(OC(C)C(=O)NC3CCCCC3)ccc2cc1C1CCC(=O)NC1=O (centres unmarked) [Compound 36, N-cyclohexyl-2-((3-(2,6-dioxopiperidin-3-yl)-2-methylquinolin-7-yl)oxy)propenamide] | – | – | – | – | > 3.16 | < 10 | < 0.5 | < 10 | < 10 | < 10 | < 10 |
| Cc1nc2cc(COC(=O)NC3CCN(c4ccccc4)CC3)ccc2cc1C1CCC(=O)NC1=O (centres unmarked) [Compound 47, (3-(2,6-dioxopiperidin-3-yl)-2-methylquinolin-7-yl)methyl (1-phenylpiperidin-4-yl)carbamate] | – | – | – | – | > 3.16 | < 10 | < 0.5 | < 10 | < 10 | < 10 | 10 to 50 |
| Cc1nc2ccc(CNC(=O)NC3CCCCC3)cc2cc1N1CCC(=O)NC1=O [Compound 52, 1-cyclohexyl-3-((3-(2,4-dioxotetrahydropyrimidin-1(2H)-yl)-2-methylquinolin-6-yl)methyl)urea] | – | – | – | – | 0.316 to 3.16 | ≥ 50 | > 1 | 10 to 25 | 25 to 50 | < 10 | 10 to 50 |
